# In PubChem BioAssay AID1259407 (Chemical Carcinogenesis Research Information System (CCRIS), 2018):
# The source made the active and inactive calls. The rule behind the calls is not given here.
# Test system: CCRIS mutagenicity, Ames/micronucleus/aberration tests
# Experiment: CCRIS mutagenicity studies
# [1] = Test System: AMES SALMONELLA TYPHIMURIUM, Strain/Indicator: TA98, Metabolic Activation: NONE, Method: STANDARD PLATE
# [2] = Test System: AMES SALMONELLA TYPHIMURIUM, Strain/Indicator: TA100, Metabolic Activation: NONE, Method: STANDARD PLATE
# [3] = Test System: AMES SALMONELLA TYPHIMURIUM, Strain/Indicator: TA1537, Metabolic Activation: NONE, Method: STANDARD PLATE
# [4] = Test System: AMES SALMONELLA TYPHIMURIUM, Strain/Indicator: TA1538, Metabolic Activation: NONE, Method: STANDARD PLATE
# [5] = Test System: AMES SALMONELLA TYPHIMURIUM, Strain/Indicator: TA98, Metabolic Activation: NONE, Method: PREINCUBATION
# [6] = Test System: AMES SALMONELLA TYPHIMURIUM, Strain/Indicator: TA100, Metabolic Activation: NONE, Method: PREINCUBATION
# [7] = Test System: AMES SALMONELLA TYPHIMURIUM, Strain/Indicator: TA1535, Metabolic Activation: NONE, Method: PREINCUBATION
# [8] = Test System: AMES SALMONELLA TYPHIMURIUM, Strain/Indicator: TA98, Metabolic Activation: RAT, LIVER, S-9, AROCLOR 1254, Method: STANDARD PLATE
# [9] = Test System: AMES SALMONELLA TYPHIMURIUM, Strain/Indicator: TA100, Metabolic Activation: RAT, LIVER, S-9, AROCLOR 1254, Method: STANDARD PLATE
structure (smiles),measurement,setting,value
CC(=O)Nc1ccc2c(c1)[nH]c1ccccc12,mutagenic call,[1],active; positive
same,mutagenic call,"Test System: AMES SALMONELLA TYPHIMURIUM, Strain/Indicator: TA98, Metabolic Activation: RAT, LIVER, S-9, PHENOBARBITAL, Method: STANDARD PLATE",active; positive
same,mutagenic call,[2],inactive; negative
same,mutagenic call,"Test System: AMES SALMONELLA TYPHIMURIUM, Strain/Indicator: TA100, Metabolic Activation: RAT, LIVER, S-9, PHENOBARBITAL, Method: STANDARD PLATE",inactive; negative
same,mutagenic call,[3],inactive; negative
same,mutagenic call,[4],active; positive
same,mutagenic call,"Test System: AMES SALMONELLA TYPHIMURIUM, Strain/Indicator: TA1538, Metabolic Activation: RAT, LIVER, S-9, PHENOBARBITAL, Method: STANDARD PLATE",active; positive
same,mutagenic call,"Test System: AMES SALMONELLA TYPHIMURIUM, Strain/Indicator: TA1977, Metabolic Activation: NONE, Method: STANDARD PLATE",inactive; negative
same,mutagenic call,"Test System: AMES SALMONELLA TYPHIMURIUM, Strain/Indicator: TA1977, Metabolic Activation: RAT, LIVER, S-9, PHENOBARBITAL, Method: STANDARD PLATE",inactive; negative
O=C(O)c1ccc(/C=C/c2ccc([N+](=O)[O-])o2)cc1,mutagenic call,[5],active; positive
same,mutagenic call,"Test System: AMES SALMONELLA TYPHIMURIUM, Strain/Indicator: TA98, Metabolic Activation: RAT, LIVER, S-9, PCB, Method: PREINCUBATION",active; positive
same,mutagenic call,[6],active; positive
same,mutagenic call,"Test System: AMES SALMONELLA TYPHIMURIUM, Strain/Indicator: TA100, Metabolic Activation: RAT, LIVER, S-9, PCB, Method: PREINCUBATION",active; positive
CC(=O)c1c(=O)cc(C)oc1=O,mutagenic call,"End Point: IN VIVO MICRONUCLEUS, Test System: BONE MARROW POLYCHROMATIC ERYTHROCYTES, Species: MOUSE, Strain/Sex: DDY/MALE, Route: IP",active; positive
same,mutagenic call,"Test System: AMES SALMONELLA TYPHIMURIUM, Strain/Indicator: TA97A, Metabolic Activation: NONE, Method: PREINCUBATION",inactive; negative
same,mutagenic call,"Test System: AMES SALMONELLA TYPHIMURIUM, Strain/Indicator: TA97A, Metabolic Activation: RAT, LIVER, S-9, AROCLOR 1254, Method: PREINCUBATION",inactive; negative
same,mutagenic call,"Test System: AMES SALMONELLA TYPHIMURIUM, Strain/Indicator: TA98, Metabolic Activation: HAMSTER, LIVER, S-9, AROCLOR 1254 (10%), Method: PREINCUBATION",inactive; negative
same,mutagenic call,[5],inactive; negative
same,mutagenic call,"Test System: AMES SALMONELLA TYPHIMURIUM, Strain/Indicator: TA98, Metabolic Activation: RAT, LIVER, S-9, AROCLOR 1254 (10%), Method: PREINCUBATION",inactive; negative
same,mutagenic call,"Test System: AMES SALMONELLA TYPHIMURIUM, Strain/Indicator: TA100, Metabolic Activation: HAMSTER, LIVER, S-9, AROCLOR 1254 (10%), Method: PREINCUBATION",inactive; negative
same,mutagenic call,[6],inactive; negative
same,mutagenic call,"Test System: AMES SALMONELLA TYPHIMURIUM, Strain/Indicator: TA100, Metabolic Activation: RAT, LIVER, S-9, AROCLOR 1254 (10%), Method: PREINCUBATION",inactive; negative
same,mutagenic call,"Test System: AMES SALMONELLA TYPHIMURIUM, Strain/Indicator: TA102, Metabolic Activation: NONE, Method: PREINCUBATION",inactive; negative
same,mutagenic call,"Test System: AMES SALMONELLA TYPHIMURIUM, Strain/Indicator: TA102, Metabolic Activation: RAT, LIVER, S-9, AROCLOR 1254, Method: PREINCUBATION",inactive; negative
same,mutagenic call,"Test System: AMES SALMONELLA TYPHIMURIUM, Strain/Indicator: TA1535, Metabolic Activation: HAMSTER, LIVER, S-9, AROCLOR 1254 (10%), Method: PREINCUBATION",inactive; negative
same,mutagenic call,[7],inactive; negative
same,mutagenic call,"Test System: AMES SALMONELLA TYPHIMURIUM, Strain/Indicator: TA1535, Metabolic Activation: RAT, LIVER, S-9, AROCLOR 1254 (10%), Method: PREINCUBATION",inactive; negative
same,mutagenic call,"Test System: AMES SALMONELLA TYPHIMURIUM, Strain/Indicator: TA1537, Metabolic Activation: HAMSTER, LIVER, S-9, AROCLOR 1254 (10%), Method: PREINCUBATION",inactive; negative
same,mutagenic call,"Test System: AMES SALMONELLA TYPHIMURIUM, Strain/Indicator: TA1537, Metabolic Activation: NONE, Method: PREINCUBATION",inactive; negative
same,mutagenic call,"Test System: AMES SALMONELLA TYPHIMURIUM, Strain/Indicator: TA1537, Metabolic Activation: RAT, LIVER, S-9, AROCLOR 1254 (10%), Method: PREINCUBATION",inactive; negative
C/C=C/C=C/C,mutagenic call,[5],inactive; negative
same,mutagenic call,"Test System: AMES SALMONELLA TYPHIMURIUM, Strain/Indicator: TA98, Metabolic Activation: S-9, Method: PREINCUBATION",inactive; negative
same,mutagenic call,[6],inactive; negative
same,mutagenic call,"Test System: AMES SALMONELLA TYPHIMURIUM, Strain/Indicator: TA100, Metabolic Activation: S-9, Method: PREINCUBATION",inactive; negative
same,mutagenic call,[7],inactive; negative
same,mutagenic call,"Test System: AMES SALMONELLA TYPHIMURIUM, Strain/Indicator: TA1535, Metabolic Activation: S-9, Method: PREINCUBATION",inactive; negative
same,mutagenic call,"Test System: E.COLI, Strain/Indicator: WP2UVRA/PKM101, Metabolic Activation: NONE, Method: PREINCUBATION",inactive; negative
same,mutagenic call,"Test System: E.COLI, Strain/Indicator: WP2UVRA/PKM101, Metabolic Activation: S-9, Method: PREINCUBATION",inactive; negative
O=C(Nc1ccccc1F)c1csc([N+](=O)[O-])c1,mutagenic call,[1],active; positive
same,mutagenic call,[2],active; positive
O=C1NC(=O)C(CBr)=C1Cl,mutagenic call,[2],active; positive
CCOCOCC,mutagenic call,"Test System: AMES SALMONELLA TYPHIMURIUM, Strain/Indicator: TA98, Metabolic Activation: HAMSTER, LIVER, S-9, AROCLOR 1254, Method: STANDARD PLATE",inactive; negative
same,mutagenic call,[1],inactive; negative
same,mutagenic call,[8],inactive; negative
same,mutagenic call,"Test System: AMES SALMONELLA TYPHIMURIUM, Strain/Indicator: TA100, Metabolic Activation: HAMSTER, LIVER, S-9, AROCLOR 1254, Method: STANDARD PLATE",inactive; negative
same,mutagenic call,[2],inactive; negative
same,mutagenic call,[9],inactive; negative
same,mutagenic call,"Test System: AMES SALMONELLA TYPHIMURIUM, Strain/Indicator: TA1535, Metabolic Activation: HAMSTER, LIVER, S-9, AROCLOR 1254, Method: STANDARD PLATE",inactive; negative
same,mutagenic call,"Test System: AMES SALMONELLA TYPHIMURIUM, Strain/Indicator: TA1535, Metabolic Activation: NONE, Method: STANDARD PLATE",inactive; negative
same,mutagenic call,"Test System: AMES SALMONELLA TYPHIMURIUM, Strain/Indicator: TA1535, Metabolic Activation: RAT, LIVER, S-9, AROCLOR 1254, Method: STANDARD PLATE",inactive; negative
same,mutagenic call,"Test System: AMES SALMONELLA TYPHIMURIUM, Strain/Indicator: TA1537, Metabolic Activation: HAMSTER, LIVER, S-9, AROCLOR 1254, Method: STANDARD PLATE",inactive; negative
same,mutagenic call,[3],inactive; negative
same,mutagenic call,"Test System: AMES SALMONELLA TYPHIMURIUM, Strain/Indicator: TA1537, Metabolic Activation: RAT, LIVER, S-9, AROCLOR 1254, Method: STANDARD PLATE",inactive; negative
same,mutagenic call,"Test System: AMES SALMONELLA TYPHIMURIUM, Strain/Indicator: TA1538, Metabolic Activation: HAMSTER, LIVER, S-9, AROCLOR 1254, Method: STANDARD PLATE",inactive; negative
same,mutagenic call,[4],inactive; negative
same,mutagenic call,"Test System: AMES SALMONELLA TYPHIMURIUM, Strain/Indicator: TA1538, Metabolic Activation: RAT, LIVER, S-9, AROCLOR 1254, Method: STANDARD PLATE",inactive; negative
same,mutagenic call,"Test System: MOUSE LYMPHOMA, Strain/Indicator: L5178Y (TK+/TK-), Metabolic Activation: NONE, Method: SUSPENSION/PLATE",inactive; negative. reevaluation of results: negative
same,mutagenic call,"Test System: MOUSE LYMPHOMA, Strain/Indicator: L5178Y (TK+/TK-), Metabolic Activation: RAT, LIVER, S-9, AROCLOR 1254, Method: SUSPENSION/PLATE",active; positive. reevaluation of results: positive
c1ccc2c(c1)ccc1c3cccnc3ccc21,mutagenic call,[8],active; positive
same,mutagenic call,[9],active; positive
